The results in this text go back to article PMC9729294 (Scientific Reports, 2022).

Experiment [1] has as its system Candida albicans. Put plainly: Antifungal disc diffusion, C. albicans. Type of experiment: cell-based. The conditions noted are these: Nil = zero inhibition. The method, then: (§1) The ligand and its metal(II) complexes were evaluated for antimicrobial activity against two strains, gram-positive bacteria (Staphylococcus aureus and Staphylococcus faecalis), gram-negative bacteria (Escherichia coli and Pseudomonas aeruginosa) and pathogenic fungi (Candida albicans), using DMSO as a negative control. […] The antimicrobial activity of the tested samples was determined using a modified Kirby-Bauer disc diffusion method. All the synthesized compounds were dissolved to prepare a stock solution of 1 mg/mL using DMSO. Stock solution was aseptically transferred, and two-fold diluted to have solutions of different concentrations. The antibacterial and antifungal activities of test compounds were done by filter paper disc method[21] and the activities were determined by measuring the diameters of the inhibition zone (mm). Media with DMF was set up as a control. All cultures were routinely maintained on NA (nutrient agar) and incubated at 37 °C. The inoculums of bacteria were performed by growing the culture in NA broth at 37 °C for overnight. Approximately, 0.1 mL of diluted bacterial or fungal culture suspension was spread with the help of spreader on NA plates uniformly. Solutions of the tested compounds and reference drugs were prepared by dissolving 10 mg of the compound in 10 mL DMF. […]
(In general: A growth-free zone around the sample is the usual read-out of agar diffusion tests.)

Experiment [2] deals with Staphylococcus faecalis. Put plainly: Antimicrobial disc diffusion, S. faecalis. The conditions noted are these: Nil = zero inhibition. In kind it is cell-based. The method, then:
as §1

In experiment [3] the test system is Escherichia coli. Put plainly: Antimicrobial disc diffusion, E. coli. In kind it is cell-based. The conditions noted are these: Nil = zero inhibition. The method, then:
as §1

The test system of experiment [4] is red blood cell (RBC) membrane. The experiment can be described thus: Membrane stabilization (antihemolytic) activity, hypotonic solution-induced RBC lysis. In kind it is cell-based, human. The method, then:
Anti-inflammatory activities were evaluated through the antihemolytic membrane stabilization effect of the ligand and its metal complexes using a red blood cell (RBC) membrane stabilization method. Fresh whole blood samples were collected in anticoagulant tubes from a healthy volunteer who was not treated with any nonsteroidal anti-inflammatory drugs (NSAIDs) for 2 weeks before the experiment. Erythrocytes were extracted by centrifugation at 3000 rpm for 5 min. The anticoagulated cells were washed 3 times with 0.9% saline and centrifuged at 3000 rpm for 10 min. An RBC suspension (40% v/v) was prepared using isotonic saline phosphate buffer (0.15 M NaCl and 10 mM sodium phosphate buffer, pH 7.4). One milliliter of phosphate buffer (0.15 M, pH 7.4) was added to one mL of various concentrations of the tested compounds (0.05, 0.1, 0.2, 0.3, 0.4 and 0.5 mg/mL DMSO) and 2 mL sodium chloride solution (0.25%). In the control tube, one distilled water was used instead of the tested compounds. Different concentrations of nonsteroidal anti-inflammatory drug (diclofenac potassium) were used as standards. Then, 100 µL of RBC suspension was added to each tube and incubated at room temperature for 60 min. After incubation, the samples were centrifuged for 10 min at 3000 rpm. The absorbance of the supernatant was detected at 540 nm using an ELISA reader. The inhibition of hemolysis in the samples was evaluated according to the equation: %Inhibition \, of \, hemolysis=A \, control-A \, sample/A \, control×100.

For experiment [5], the system named is Pseudomonas aeruginosa. Put plainly: Antimicrobial disc diffusion, P. aeruginosa. In kind it is cell-based. As to conditions: Nil = zero inhibition. The method, then:
as §1

Experiment [6] can be described thus: Reducing power assay (ferricyanide, absorbance at 700 nm). The conditions noted are these: Standard = ascorbic acid. In kind it is biochemical. The method, then: The reducing power capacity of the investigated compounds was evaluated by the method of Oyaizu[18]. Then, 0.5 mL of different concentrations ([…], 0.1, 0.2, 0.3, 0.4 and 0.5 mg/mL in DMSO) was added to 0.5 mL of sodium phosphate buffer (0.2 M, pH 6.6) and 0.5 mL of 1% potassium ferricyanide. The samples were incubated at 50 °C for 20 min. Then, 0.5 mL trichloroacetic acid (10%) was added and centrifuged at 3000 rpm for 15 min. The supernatant (1.0 mL) was incubated with 1.0 mL H2O2 and 0.2 mL of 1% ferric chloride for 30 min. The absorbance of the samples was measured at 700 nm. Ascorbic acid was used as a standard. An increase in the absorbance value indicates a higher reducing power.

In experiment [7] the test system is Staphylococcus aureus. Put plainly: Antimicrobial disc diffusion, S. aureus. In kind it is cell-based. As to conditions: Nil = zero inhibition. The method, then:
as §1

The nature of experiment [8]: Nitric oxide scavenging assay (sodium nitroprusside / Griess reagent). Type of experiment: biochemical. The conditions noted are these: Standard = ascorbic acid. The method, then:
The nitric oxide scavenging activity of the ligand and its complexes was evaluated following a reported procedure Padmaja, et al.[17]. […] The samples were added to 150 µL Griess reagent (1% sulfanilamide and 0.1% naphthyl ethylenediamine hydrochloride in 2.5% orthophosphoric acid) and incubated at 25 °C for 30 min. The absorbance (A) was read at 540 nm using an ELISA reader. The experiment was repeated in triplicate, and ascorbic acid was used as a standard. The scavenged activity of NO was calculated using the equation %inhibition=[(A \, control-A \, sample)/A \, control]×100.
In general terms: The Griess reaction detects nitrite, a stable product of nitric oxide.

The subject of experiment [9] is Acetylcholinesterase (AChE). Put plainly: AChE inhibition (Ellman method, brain homogenate). The conditions noted are these: Standard = donepezil. Type of experiment: biochemical. The method, then:
Acetylcholinesterase (AChE) activity was evaluated according to a previously reported method. Briefly, 10 μL of different concentrations of the tested compounds (test) or organic solvent (control) was added to 130 μL of phosphate buffer (pH 7.4, 0.1 M) and 20 μL of brain homogenate and then incubated at 37 °C for 45 min. Then, 5 μL of […] (75 mM) was added and incubated for 15 min at 37 °C. After incubation, […] of 0.32 mM DTNB was added. […] The percent inhibition of AChE was calculated as follows: %inhibition \, of \, […]=[A \, control--A \, sample/A \, control]×100.
Background: Ellman's reagent forms a yellow product with free thiols.

A short description of experiment [10]: DPPH radical scavenging assay. Type of experiment: biochemical. The conditions noted are these: for DPPH radical scavenging activity (% inhibition): Standard = ascorbic acid (vitamin C). The method, then:
The oxidative scavenging activity of the ligand and its complexes was evaluated by DPPH (4 mg/100 ml methanol) Zengin, et al.[16]. Briefly, equal volumes of different concentrations ([…], 0.1, 0.2, 0.3, 0.4 and 0.5 mg/mL DMSO) of the tested components were added to DPPH reagent using ascorbic acid as a reference. All the investigated tests were shaken and incubated at room temperature in the dark for 30 min. The decrease in DPPH radicals was evaluated at 490 nm using an ELISA reader. Each test was performed in triplicate. The radical scavenging power was estimated as a percentage of DPPH inhibition using the equation: %inhibition=[(A \, control-A \, sample)/A \, control]×100.

[11] abbreviates: Homo sapiens, Erythrocyte, read-out: Inhibition of RBC hemolysis (membrane stabilization).

The molecule `C[C@@H]1[C@H](O)[C@@H](C)/C=C/C=C/C=C/C=C/C=C/C=C/C=C/[C@H](O[C@@H]2O[C@H](C)[C@@H](O)[C@H](N)[C@@H]2O)C[C@@H]2O[C@](O)(C[C@@H](O)C[C@@H](O)[C@H](O)CC[C@@H](O)C[C@@H](O)CC(=O)O[C@H]1C)C[C@H](O)[C@H]2C(=O)O` [Amphotericin B, reference compound] yielded an Inhibition zone diameter in experiment [1] of 20 mm/mg sample.
Turning to `Oc1ccc2ccccc2c1/C=N/c1ccc(Cc2ccc(/N=C/c3c(O)ccc4ccccc34)cc2)cc1` [Ligand], the Inhibition zone diameter result in experiment [2], in experiment [3], in experiment [5], in [7] and in experiment [1] was “Nil” throughout. The inhibition (usually the drop in the measured response relative to a control, in per cent) at 50 µg/mL in [4] (setting [11]) came out at 11.8 ± 1.01%. Further, the inhibition at 100 µg/mL in experiment [4] (setting [11]) was found to be 19.8 ± 0.75%. Moreover, the inhibition at 200 µg/mL in experiment [4] (setting [11]) came to 26.9 ± 0.44%. Moreover, the inhibition at 300 µg/mL in experiment [4] (setting [11]) turned out to be 32.7 ± 0.8%. The inhibition at 400 µg/mL in experiment [4] (setting [11]) turned out to be 38.5 ± 1.16%. The inhibition at 500 µg/mL in experiment [4] (setting [11]) is 43.4 ± 0.68%. In addition, the “Reducing power (absorbance at 700 nm)” value is recorded as 0.10 ± 0.01 in experiment [6] (0.05 mg/mL); 0.13 ± 0.001 in experiment [6] (0.1 mg/mL); 0.17 ± 0.01 in experiment [6] (0.2 mg/mL); 0.20 ± 0.01 in experiment [6] (0.3 mg/mL); 0.23 ± 0.001 in experiment [6] (0.4 mg/mL); 0.29 ± 0.01 in [6] (0.5 mg/mL). Moreover, the “NO scavenging (% inhibition)” value in [8] (0.05 mg/mL) is on record as 15.8 ± 0.78%; in experiment [8] (0.1 mg/mL) it was 21.37 ± 1.38%; in experiment [8] (0.2 mg/mL) it was 27.13 ± 1.58%; in [8] (0.3 mg/mL), 37.27 ± 0.97%; in experiment [8] (0.4 mg/mL), 42.7 ± 1.78%; in experiment [8] (0.5 mg/mL), 47.65 ± 1.49%. The AChE percent inhibition in experiment [9] (0.05 mg/mL) worked out at 17.70 ± 1.04%; in [9] (0.1 mg/mL) it was 21.83 ± 1.5%; in experiment [9] (0.2 mg/mL), 27.27 ± 1.16%; in [9] (0.3 mg/mL), 32.90 ± 1.61%; in [9] (0.4 mg/mL) it was 38.57 ± 1.0%; in experiment [9] (0.5 mg/mL), 41.97 ± 1.08%. Moreover, the “DPPH radical scavenging activity (% inhibition)” value in experiment [10] (0.05 mg/mL) was determined as 11.5 ± 0.95%; in [10] (0.1 mg/mL) it was 17.53 ± 0.85%; in experiment [10] (0.2 mg/mL), 25.33 ± 0.81%; in experiment [10] (0.3 mg/mL), 31.13 ± 0.65%; in experiment [10] (0.4 mg/mL) it was 38.83 ± 0.81%; in experiment [10] (0.5 mg/mL), 44.43 ± 0.70%.
For the molecule `CN(C)[C@@H]1C(O)=C(C(N)=O)C(=O)[C@@]2(O)C(O)=C3C(=O)c4c(O)cccc4[C@@](C)(O)[C@H]3C[C@@H]12` [Tetracycline, reference compound], the Inhibition zone diameter in experiment [2] worked out at 33 mm/mg sample; in experiment [3], 32 mm/mg sample; in experiment [5] it was 33 mm/mg sample; in [7] it was 32 mm/mg sample.
For `O=C1O[C@H]([C@@H](O)CO)C(O)=C1O` [ascorbic acid, reference compound], the “DPPH IC50” value in experiment [10] turned out to be 145 µg/mL.
Regarding `O=C([O-])Cc1ccccc1Nc1c(Cl)cccc1Cl.[K+]` [diclofenac potassium, reference compound], the “Antihemolytic activity toward RBCs IC50” value in [4] (hypotonic solution-induced lysis) worked out at 120 µg/mL.
